Values of other authors, collected in patent US20100179115A1, “USE OF A GLUCOCORTICOID RECEPTOR II ANTAGONIST TO TREAT DEPRESSION IN PATIENTS TAKING IL-2” (Corcept Therapeutics, Inc., priority 2006, published 2010).

Key:
[1] = in one study (Kawai)
[2] = tested on: IL-1 induced memory deficits; settings: Song 2002
severe major depression = settings: four patients, one completed, no control group; Murphy 1993

fraction of the daily dose excreted in the urine [1]: less than 0.5%
Compound: CC#C[C@]1(O)CC[C@H]2[C@@H]3CCC4=CC(=O)CCC4=C3[C@@H](c3ccc(N(C)C)cc3)C[C@@]21C [Mifepristone, 17-beta-hydroxy-11-beta-(4-dimethyl-aminophenyl)-17-alpha-(1-propynyl)-estra-4,9-dien-3-one]
recovery of rats that did not recover from the deleterious effects of IL-1 ([2]; after one or two treatments): complete recovery | effect on learning and memory impairments associated with IL-1 administration ([2]; rats, i.c.v. injection immediately prior to IL-1): significant reduction in learning and memory impairments | effectiveness in treating depression (severe major depression): no clear evidence that RU486 was effective
